This is an account of results in US9890327B2, “Phosphorescent transition metal complex, its preparation and use” (City University of Hong Kong, priority 2015, dated 2018).

Data set [1] is described as follows: H2O2-sensing emission titration. It is filed as physicochemical. Particulars: complex 10 μM, buffer pH 7.4/DMSO (99:1). As to the method: (§1) In H2O2-sensing studies, various amounts of H2O2 (25 mM; 0-20 μL) were added to a series of solutions containing metal complex of Formula (IV) (10 μM) in potassium phosphate buffer (50 mM, pH 7.4)/DMSO (99:1, v/v). The reaction mixtures were incubated in the dark at room temperature for 1.5 h, and their emission spectra were then measured. The limit of detection was determined according to the equation, […]. In the selectivity studies, different reactive oxygen species (100 μM) were added into a series of solutions containing metal complex of Formula (IV) (10 μM) in potassium phosphate buffer (50 mM, pH 7.4)/DMSO (99:1, v/v). The reaction mixtures were incubated in the dark at room temperature for 1.5 h, and their emission spectra were then measured. H2O2 was diluted from a stabilized 30% aqueous solution. TBHP was diluted from a 70% aqueous solution. NOC-7, KO2, and NaOCl were used as the sources of NO, O2^−, and ClO^−, respectively. Singlet oxygen (^1O2) was generated by the reaction of NaOCl and H2O2(Held, A M. Et al., Am. Chem. Soc., 1978, 100:5732-5740; Aubry, J M., J. Am. Chem. Soc., 1985, 107:5844-5849). Hydroxyl radicals (OH.) were generated by the reaction of ammonium iron(II) sulfate hexahydrate and H2O2.
The reactivity of metal complex of Formula (IV) with H2O2 was examined by emission titrations and the emission titration traces and corresponding titration curve are shown in FIGS. 5 and 6, respectively. […] The detection limit was calculated to be 1.84 μM.

A short description of data set [2]: Selectivity study: emission response toward reactive oxygen species. It is filed as physicochemical. The following applies: complex 10 μM, buffer pH 7.4/DMSO (99:1), 1.5 h. As to the method:
as §1, with “H2O2. […]” for “H2O2.”

The nature of data set [3]: Reaction kinetics with H2O2 under pseudo first-order conditions, UV-Visible spectroscopy. Particulars: 298 K. It is filed as physicochemical. The method, then:
Kinetics experiments for the reactions of metal complex of Formula (IV) with H2O2 were performed under pseudo first-order conditions. Metal complex of Formula (IV) (10 μM) was reacted with H2O2 in a 1:100, 1:200, 1:400, or 1:800 molar ratio in potassium phosphate buffer (50 mM, pH 7.4)/DMSO (99:1, v/v) at 298 K. The reactions were monitored by UV-Visible spectroscopy at ca. 343 nm. The kobs values were determined by fitting the experimental data to the first-order rate equation, [A]=[A]oe^−kt. The k2 value was determined by plotting kobs versus [H2O2] and the rate constant corresponds to the determined slope.
The change in absorption spectrum of metal complex of Formula (IV) (10 μM) in aerated potassium phosphate buffer (50 mM, pH 7.4)/DMSO (99:1, v/v) in the presence of H2O2(1 mM) at 298 K is shown in FIG. 3. […] The pseudo first-order rate constant (kobs) of reaction of metal complex of Formula (IV) (10 μM) was determined to be (0.6375±0.0092)×10^−3 s^−1. The plot of kobs of reactions of metal complex of Formula (IV) with H2O2 against various concentrations of H2O2 is shown in FIG. 4.

The test system of data set [4] is HeLa cells. The data set can be described thus: Cytotoxicity by MTT assay. It is filed as cell-based. As to the method: To confirm the suitability of the possibility of metal complex of Formula (IV) as phosphorescent sensor for intracellular H2O2, the cytotoxicity of metal complex of Formula (IV) was examined by the MTT assay.
HeLa cells were cultured in growth medium in a humidified chamber at 37° C. under a 5% CO2 atmosphere. The cells were subcultured every 2-3 days. HeLa cells were seeded in a 96-well flat-bottomed microplate (10,000 cells/well) in a growth medium (100 μL) and incubated at 37° C. under a 5% CO2 atmosphere for 24 h. […] The wells containing untreated cells were used as blank controls. […] Then MTT in PBS (5 mg/mL; 10 μL) was added to each well. The microplate was then incubated for another 4 h. The medium was removed and DMSO (200 μL) was added to each well. The microplate was further incubated for 10 min. The absorbance of the solutions at 570 nm was measured with a SPECTRAmax 340 microplate reader (Molecular Devices Corp., Sunnyvale, Calif.). Percentage cell survival was calculated relative to the absorbance of the control for each treatment. The viability of untreated cells was assumed to be 100%.
(In general: Tetrazolium assays rely on reduction of a dye to a coloured formazan, in cell work by metabolically active cells.)

Data set [5] is described as follows: Photophysical properties (emission, lifetime, luminescence quantum yield). It is filed as physicochemical. The following applies: for Φem / λem / τo: 298 K. As to the method: ^1H NMR spectra were recorded on a Bruker 400 MHz AVANCE III spectrometer at 298 K using deuterated solvents. Chemical shifts (8, ppm) were reported relative to tetramethylsilane (TMS). Positive-ion electrospray ionization (ESI) mass spectra were recorded on a Perkin Elmer Sciex API 365 mass spectrometer at 298 K. IR spectra of the samples in KBr pellets were recorded in the range of 4000-400 cm^−1 using a Perkin Elmer FTIR-1600 spectrophotometer. Electronic absorption and steady-state emission spectra were recorded on a Hewlett-Packard 8453 diode array spectrophotometer and a SPEX Fluorolog 3-TCSPC spectrofluorometer, respectively. Emission lifetimes were measured in the Fast MCS or TCSPC mode with a NanoLED N-375 as the excitation source. Unless specified otherwise, all solutions for photophysical studies were degassed with no fewer than four successive freeze-pump-thaw cycles and stored in a 10 cm^3 round bottomed flask equipped with a side-arm 1-cm fluorescence cuvette and sealed from the atmosphere by a Rotaflo HP6/6 quick-release Teflon stopper. Luminescence quantum yields were measured by the optically dilute method (Demas, J N., Crosby, G A J., Phys. Chem., 1971, 75:991-1024) using a degassed CH3CN solution of [Re(phen)(CO)3(pyridine)](CF3SO3) (phen=1,10-phenanthroline) (φem=0.18, λex=355 nm) as the standard solution.
The photophysical data are summarized in Table 2, and the emission spectra of metal complex of Formula (IV) in CH3CN and aqueous buffer solutions at 298 K are shown in FIG. 2.

Data set [6] has as its system HeLa cells. The data set can be described thus: Live-cell imaging by laser-scanning confocal microscopy (uptake, mitochondrial co-staining, intracellular H2O2). It is filed as cell-based. As to the method:
For co-staining experiments, HeLa cells in growth medium were seeded on a sterilized coverslip in a 35-mm tissue culture dish and grown at 37° C. under a 5% CO2 atmosphere for 48 h. The medium was removed and the cells were incubated with metal complex of Formula (IV) (10 μM) in growth medium/DMSO (99:1, v/v) for 40 min and then with MitoTracker Deep Red FM (100 nM) in a FBS-free medium for another 20 min. Prior to imaging, the cells were washed with PBS (1 mL×3), mounted onto a sterilized glass slide, and then imaged using a Leica TCS SPE confocal microscope with an oil immersion 63× objective. The excitation wavelength for metal complex of Formula (IV) was 405 nm and that of MitoTracker Deep Red FM was 633 nm. The Pearson's coefficient was determined by the program Image J (version 1.45k). For imaging of intracellular H2O2, HeLa cells in growth medium were seeded on a sterilized coverslip in a 35-mm tissue culture dish and grown at 37° C. under a 5% CO2 atmosphere for 48 h. The medium was removed and the cells were incubated with metal complex of Formula (IV) (10 μM) in growth medium/DMSO (99:1, v/v) for 1 h. The stained cells were washed with PBS (1 mL×3) and further treated with H2O2 (1 mM) in growth medium for another 2 h. Prior to imaging, the cells were washed with PBS (1 mL×3), mounted onto a sterilized glass slide, and then imaged using a Leica TCS SPE confocal microscope with an oil immersion 63× objective.
The use of metal complex of Formula (IV) for intracellular H2O2-sensing was evaluated by laser-scanning confocal microscopy. […] (FIG. 10D to 10F). This implies that the internalization of metal complex of Formula (IV) involved an energy-requiring pathway such as endocytosis.
With reference to FIG. 11A to 11C, the metal complex of Formula (IV) was localized in the mitochondria (Pearson's coefficient: 0.99).

The conditions of data set [7]: degassed CH3CN solution, λex=355 nm; cited from earlier work.
Where [8] appears, read: Potassium phosphate buffer (50 mM, pH 7.4)/MeOH (7:3, v/v).

In general, IC50 refers to the concentration needed to halve the response being measured. Turning to “[Re(Ph2-phen)(CO)3(py-3-C(═O)C(═O)C6H3(NH2)(NO2)](CF3SO3) [Metal complex of Formula (IV)]”, the “emission enhancement (I/I0)” value in data set [1] ([H2O2]=250 μM, 1.5 h) is on record as 20.6. In data set [1], the “H2O2 concentration range of good linearity of emission intensity enhancement” value was 0 to 50 µM and the “detection limit for H2O2” value came to 1.84 µM. The “emission response toward H2O2” value in data set [2] (H2O2 100 μM) is “significant emission enhancement”. The “emission response toward TBHP, 1O2, OH., NO, O2−, ClO−” value in data set [2] (ROS 100 μM) is recorded as “did not induce any significant changes in the emission intensity”. Also, in data set [3] (complex 10 μM, H2O2 (1 mM), aerated potassium phosphate buffer (50 mM, pH 7.4)/DMSO (99:1, v/v)), the “pseudo first-order rate constant (kobs)” value is reported as “(0.6375±0.0092)×10^−3 s^−1”. The second-order rate constant in data set [3] (slope of kobs versus [H2O2], potassium phosphate buffer (50 mM, pH 7.4)/DMSO (99:1, v/v)) turned out to be 0.7301 ± 0.0134 M⁻¹ s⁻¹. Besides, the “cytotoxic effect under imaging experiment conditions” value in data set [4] (10 μM, 1 h) is “would not cause significant cytotoxic effect”. The IC50 in data set [4] (HeLa cells, 48 h, MTT) amounted to 3.34 ± 0.05 µM. In data set [5] (CH3CN), this molecule registered a Φem of 0.007, a λem of 554 nm and a τo of 4.83 μs. In data set [5] (setting [8]), this molecule came in with a Φem of 0.005, a λem of 557 nm and a τo of 3.14 μs. The molecule further showed a luminescence quantum yield in data set [5] (upon irradiation, very weak MLCT emission) of less than 0.007. Besides, in data set [6] (HeLa cells, 10 μM, 1 h, 4° C.), the “emission intensity of the cells at lowered incubation temperature” value is “significantly reduced”. For the same molecule, in data set [6] (HeLa cells, 10 μM, 1 h, 37° C.), the intracellular emission result was “weak intracellular emission in the perinuclear region”. Also, the “intracellular emission intensity after incubation with H2O2” value in data set [6] (complex-stained HeLa cells, H2O2 1 mM, 2 h) is recorded as “significantly enhanced”.

Consider `O=S(=O)([O-])C(F)(F)F.[C-]#[O+].[C-]#[O+].[C-]#[O+].[Re+].c1ccncc1.c1cnc2c(c1)ccc1cccnc12` [[Re(phen)(CO)3(pyridine)](CF3SO3)], for which the “φem of standard solution” value in data set [7] is on record as 0.18.
